Values of other authors in patent publication US20060198860A1, “Synergistic blends of monoterpenes for mountain pine beetle pheromones” (Phero Tech Inc., priority 2005, published 2006).
Like-named read-outs stand apart in the source and are kept apart here.

How the values were obtained:
[1] = tested on: mountain pine beetle; conditions: for catch versus pheromones alone: five doses, less than 1.0 mg per day to over 6.0 g per day
[2] = tested on: mountain pine beetle; conditions: myrcene from 18 mg per day to 150 mg per day; traps also baited with trans-verbenol and exo-brevicomin
[3] = tested on: mountain pine beetle; conditions: myrcene at approximately 100 mg per day
[4] = tested on: mountain pine beetles; conditions: component alone
[5] = tested on: mountain pine beetle; conditions: in one instance (of four Rocky Mountain locations); with trans-verbenol and exo-brevicomin

Compound: C=CC(=C)CCC=C(C)C [myrcene]
- catches versus pheromones alone ([1]; doses of 0.9 and 6.4 g per day): significantly higher
- numbers of both sexes captured on raising the release rate [2]: more than doubling
- synergist relative to the foliage blend ([3]; females): over three times better
- synergist relative to the foliage blend ([3]; males): over four times a better synergist

Compound: C=C1CCC2CC1C2(C)C (stereo not drawn) [β-pinene]
- catch versus pheromones alone [1]: at no dose was the catch significantly different

Compound: CC1=CCC2C(C1)C2(C)C (centres unmarked) [3-carene]
- catches versus pheromones alone ([1]; dose of 600 mg per day): higher than to the pheromones alone
- beetles caught [4]: one female

Compound: CC1=CCC2CC1C2(C)C (stereo not drawn) [α-pinene]
- catch versus pheromones alone [1]: at no dose was the catch significantly different

Compound: CC1=CCC(=C(C)C)CC1 [terpinolene]
- catch versus pheromones alone [1]: no combination of terpinolene with trans-verbenol and exo-brevicomin that resulted in higher catches
- response versus pheromones alone ([1]; highest dose (2.1 g per day)): significantly lowered
- synergist, times better than myrcene [5]: ~88 times

Compound: C=C1C=CC(C(C)C)CC1 (stereo not drawn) [β-phellandrene]
- catch versus pheromones alone [1]: at no dose was the catch significantly higher

Compound: CC1=CCC(C(C)C)=CC1 [γ-terpinene]
- catches versus pheromone controls ([1]; doses of 51.7 mg per day and 1.1 g per day): significantly higher

Compound: trans-verbenol
- beetles caught [4]: no beetles
